Calls of active or inactive are those of the source. The rule behind the calls is not given here.
Columns and labels:
MCF7 = assay: Anticancer activity against Homo sapiens (human) MCF7 cells assessed as inhibition of cell viability by SRB assay; assay type: functional, cell-based
[1] = tested on: Mycolicibacterium smegmatis; assay: Anti-mycobacterial activity against Mycobacterium smegmatis assessed as diameter of growth inhibition zone at 10 mM; assay type: functional; conditions: read-out: DIZ
[2] = biological target: Beta-secretase 1 (Homo sapiens) (UniProt P56817); assay: Inhibition of Homo sapiens (human) recombinant BACE1 using FRET peptide Abz-YIWDEIDLMVLD-DNP as substrate at 50 uM preincubated with enzyme for 30 min prior to substrate addition measured by plate reader analysis
Beta-secretase 1 (Homo sapiens), sequence (P56817 whole entry): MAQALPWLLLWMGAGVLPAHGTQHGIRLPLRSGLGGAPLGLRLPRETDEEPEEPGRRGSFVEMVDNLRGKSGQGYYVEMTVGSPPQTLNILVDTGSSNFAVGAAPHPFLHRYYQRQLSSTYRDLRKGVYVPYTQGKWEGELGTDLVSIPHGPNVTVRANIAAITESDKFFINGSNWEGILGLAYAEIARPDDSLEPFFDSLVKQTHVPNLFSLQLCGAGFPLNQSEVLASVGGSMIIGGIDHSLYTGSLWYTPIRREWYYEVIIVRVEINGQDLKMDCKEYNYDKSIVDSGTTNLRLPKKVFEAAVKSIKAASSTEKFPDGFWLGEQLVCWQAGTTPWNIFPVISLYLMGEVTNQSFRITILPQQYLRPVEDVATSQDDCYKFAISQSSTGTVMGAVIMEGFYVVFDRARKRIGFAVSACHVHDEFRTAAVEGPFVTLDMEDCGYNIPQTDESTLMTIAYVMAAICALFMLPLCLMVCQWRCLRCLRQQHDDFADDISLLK

Structure (SMILES)	IC50 (MCF7)	other results
O=C(/C=C/c1ccc(N2CCN(CCO)CC2)cc1)c1ccc(Cl)cc1	50 µM	
O=C(/C=C/c1ccc(N(Cc2ccccc2)Cc2ccccc2)cc1)c1ccco1		zone of inhibition at 10000 µM [1]: 15 mm
O=C(/C=C/c1ccc(N2CCN(CCO)CC2)cc1)c1ccc(Br)cc1	50 µM	
COc1cc(C(=O)/C=C/c2ccc(N(Cc3ccccc3)Cc3ccccc3)cc2)cc(OC)c1OC		inhibition [2]: Active

Source: ChEMBL document CHEMBL3046084, “Synthesis and evaluation of p-N,N-dialkyl substituted chalcones as anti-cancer agents” (Med Chem Res, 2013)
